Source: patent US9062071B2, “Substituted piperidines as HDM2 inhibitors” (Merck Sharp & Dohme Corp, priority 2011, dated 2015)

What follows are compounds tested against HDM2 protein (Homo sapiens, UniProt Q00987) (assay: fluorescence polarization screening assay (FP IC50)). Details: class symbols.
Assay type: binding
Protocol: The compounds were evaluated to determine activity at the HDM2 protein by known methods such as the fluorescence polarization screening assay that measures the inhibitory concentration that achieves 50% of maximal activity (FP IC50) and the dissociation constant for inhibitor binding (FP Ki). [Zhang et al., J. Analytical Biochemistry 331: 138-146 (2004)].

Chain of HDM2 protein (Q00987 whole entry): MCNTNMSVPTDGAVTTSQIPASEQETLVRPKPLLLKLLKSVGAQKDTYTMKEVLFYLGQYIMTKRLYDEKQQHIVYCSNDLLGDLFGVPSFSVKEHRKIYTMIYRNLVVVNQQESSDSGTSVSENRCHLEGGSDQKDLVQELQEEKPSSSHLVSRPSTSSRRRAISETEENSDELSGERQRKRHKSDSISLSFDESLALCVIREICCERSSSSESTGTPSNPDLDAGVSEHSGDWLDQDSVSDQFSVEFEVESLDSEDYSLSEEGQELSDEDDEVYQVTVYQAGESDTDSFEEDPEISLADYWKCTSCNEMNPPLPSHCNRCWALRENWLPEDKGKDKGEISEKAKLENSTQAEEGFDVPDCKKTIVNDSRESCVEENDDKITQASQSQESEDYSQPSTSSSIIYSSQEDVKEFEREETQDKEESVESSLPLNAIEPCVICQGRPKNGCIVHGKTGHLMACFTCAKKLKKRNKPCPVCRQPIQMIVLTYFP

Structure (SMILES)	IC50 [nM]
CCC[C@H]1N(C(=O)c2ncccc2C(F)(F)F)CCC[C@@]1(Oc1csc(C(F)(F)F)c1)C(=O)N1CCc2sc(Cl)cc2C1CCCN1CCCC1 (stereo partly drawn) [Compound A33, 2-chloro-5-{[(2R,3S)-2-propyl-1-{[3-(trifluoromethyl)pyridin-2-yl]carbonyl}-3-{[5-(trifluoromethyl)thiophen-3-yl]oxy}piperidin-3-yl]carbonyl}-4-(3-pyrrolidin-1-ylpropyl)-4,5,6,7-tetrahydrothieno[3,2-c]pyridine]	101 to 20000
CCC[C@H]1N(C(=O)c2ncccc2C(F)(F)F)CCC[C@@]1(Oc1csc(C(F)(F)F)c1)C(=O)N1CCc2sc(Cl)cc2C1C(=O)NC (stereo partly drawn) [Compound A34, 2-chloro-N-methyl-5-{[(2R,3S)-2-propyl-1-{[3-(trifluoromethyl)pyridin-2-yl]carbonyl}-3-{[5-(trifluoromethyl)thiophen-3-yl]oxy}piperidin-3-yl]carbonyl}-4,5,6,7-tetrahydrothieno[3,2-c]pyridine-4-carboxamide]	101 to 20000
CCC[C@H]1N(C(=O)c2ncccc2C(F)(F)F)CCC[C@@]1(Oc1csc(C(F)(F)F)c1)C(=O)N1CCc2sc(Cl)cc2C1CN1CCCC1 (stereo partly drawn) [Compound A35, 2-chloro-5-{[(2R,3S)-2-propyl-1-{[3-(trifluoromethyl)pyridin-2-yl]carbonyl}-3-{[5-(trifluoromethyl)thiophen-3-yl]oxy}piperidin-3-yl]carbonyl}-4-(pyrrolidin-1-ylmethyl)-4,5,6,7-tetrahydrothieno[3,2-c]pyridine]	101 to 20000
CCC[C@H]1N(C(=O)c2ncccc2C(F)(F)F)CCC[C@@]1(Oc1csc(C(F)(F)F)c1)C(=O)N1CCc2sc(Cl)cc2C1CCC(=O)NS(C)(=O)=O (stereo partly drawn) [Compound A36, 3-(2-chloro-5-{[(2R,3S)-2-propyl-1-{[3-(trifluoromethyl)pyridin-2-yl]carbonyl}-3-{[5-(trifluoromethyl)thiophen-3-yl]oxy}piperidin-3-yl]carbonyl}-4,5,6,7-tetrahydrothieno[3,2-c]pyridin-4-yl)-N-(methylsulfonyl) propanamide]	1 to 100
CCC[C@H]1N(C(=O)c2ncccc2C(F)(F)F)CCC[C@@]1(Oc1csc(C(F)(F)F)c1)C(=O)N1CCc2sc(Cl)cc2C1CCC(=O)NS(C)(=O)=O (stereo partly drawn) [Compound A37, 3-(2-chloro-5-{[(2R,3S)-2-propyl-1-{[3-(trifluoromethyl)pyridin-2-yl]carbonyl}-3-{[5-(trifluoromethyl)thiophen-3-yl]oxy}piperidin-3-yl]carbonyl}-4,5,6,7-tetrahydrothieno[3,2-c]pyridin-4-yl)-N-(methylsulfonyl) propanamide]	1 to 100
CCC[C@H]1N(C(=O)c2ncccc2C(F)(F)F)CCC[C@@]1(Oc1csc(C(F)(F)F)c1)C(=O)N1Cc2ccc(Cl)cc2C[C@@H]1COCC(=O)O [Compound A38, {[(3R)-6-chloro-2-{[(2R,3S)-2-propyl-1-{[3-(trifluoromethyl)pyridin-2-yl]carbonyl}-3-{[5-(trifluoromethyl)thiophen-3-yl]oxy}piperidin-3-yl]carbonyl}-1,2,3,4-tetrahydroisoquinolin-3-yl]methoxy}acetic acid]	1 to 100
CCC[C@H]1N(C(=O)c2ncccc2C(F)(F)F)CCC[C@@]1(Oc1csc(C(F)(F)F)c1)C(=O)N1CCc2cc(F)ccc2C1CCC(=O)O (stereo partly drawn) [Compound A39, 3-(6-fluoro-2-{[(2R,3S)-2-propyl-1-{[3-(trifluoromethyl)pyridin-2-yl]carbonyl}-3-{[5-(trifluoromethyl)thiophen-3-yl]oxy}piperidin-3-yl]carbonyl}-1,2,3,4-tetrahydroisoquinolin-1-yl)propanoic acid]	1 to 100
CCC[C@H]1N(C(=O)c2ncccc2C(F)(F)F)CCC[C@@]1(Oc1csc(C(F)(F)F)c1)C(=O)N1CCc2cc(F)ccc2C1CCCCC(=O)O (stereo partly drawn) [Compound A40, 5-(6-fluoro-2-{[(2R,3S)-2-propyl-1-{[3-(trifluoromethyl)pyridin-2-yl]carbonyl}-3-{[5-(trifluoromethyl)thiophen-3-yl]oxy}piperidin-3-yl]carbonyl}-1,2,3,4-tetrahydroisoquinolin-1-yl)pentanoic acid]	1 to 100
CCC[C@H]1N(C(=O)c2ncccc2C(F)(F)F)CCC[C@@]1(Oc1csc(C(F)(F)F)c1)C(=O)N1CCc2cc(F)ccc2C1CCCCC(=O)O (stereo partly drawn) [Compound A41, 5-(6-fluoro-2-{[(2R,3S)-2-propyl-1-{[3-(trifluoromethyl)pyridin-2-yl]carbonyl}-3-{[5-(trifluoromethyl)thiophen-3-yl]oxy}piperidin-3-yl]carbonyl}-1,2,3,4-tetrahydroisoquinolin-1-yl)pentanoic acid]	1 to 100
CCC[C@H]1N(C(=O)c2ncccc2C(F)(F)F)CCC[C@@]1(Oc1csc(C(F)(F)F)c1)C(=O)N1CCc2cc(F)ccc2C1CCC(=O)O (stereo partly drawn) [Compound A42, 3-(6-fluoro-2-{[(2R,3S)-2-propyl-1-{[3-(trifluoromethyl)pyridin-2-yl]carbonyl}-3-{[5-(trifluoromethyl)thiophen-3-yl]oxy}piperidin-3-yl]carbonyl}-1,2,3,4-tetrahydroisoquinolin-1-yl)propanoic acid]	1 to 100
CCC[C@H]1N(C(=O)c2ncccc2C(F)(F)F)CCC[C@@]1(Oc1csc(C(F)(F)F)c1)C(=O)N1CCc2cc(F)ccc2C1CCCCC(=O)O (stereo partly drawn) [Compound A43, 5-(6-fluoro-2-{[(2R,3S)-2-propyl-1-{[3-(trifluoromethyl)pyridin-2-yl]carbonyl}-3-{[5-(trifluoromethyl)thiophen-3-yl]oxy}piperidin-3-yl]carbonyl}-1,2,3,4-tetrahydroisoquinolin-1-yl)pentanoic acid]	1 to 100
CCC[C@H]1N(C(=O)c2ncccc2C(F)(F)F)CCC[C@@]1(Oc1csc(C(F)(F)F)c1)C(=O)N1CCc2cc(F)ccc2C1CCC(=O)O (stereo partly drawn) [Compound A44, 3-(6-fluoro-2-{[(2R,3S)-2-propyl-1-{[3-(trifluoromethyl)pyridin-2-yl]carbonyl}-3-{[5-(trifluoromethyl)thiophen-3-yl]oxy}piperidin-3-yl]carbonyl}-1,2,3,4-tetrahydroisoquinolin-1-yl)propanoic acid]	1 to 100
CCC[C@H]1N(C(=O)c2ncccc2C(F)(F)F)CCC[C@@]1(Oc1csc(C(F)(F)F)c1)C(=O)N1CCc2cc(Cl)ccc2[C@H]1CCC(=O)O [Compound A45, 3-[(1R)-6-chloro-2-{[(2R,3S)-2-propyl-1-{[3-(trifluoromethyl)pyridin-2-yl]carbonyl}-3-{[5-(trifluoromethyl)thiophen-3-yl]oxy}piperidin-3-yl]carbonyl}-1,2,3,4-tetrahydroisoquinolin-1-yl]propanoic acid]	1 to 100
CCC[C@H]1N(C(=O)c2ncccc2C(F)(F)F)CCC[C@@]1(Oc1csc(C(F)(F)F)c1)C(=O)N1CCc2cc(C#N)ccc2C1 [Compound A46]	101 to 20000
CCC[C@H]1N(C(=O)c2ncccc2C(F)(F)F)CCC[C@@]1(Oc1csc(C(F)(F)F)c1)C(=O)N1CCc2cc(OC)ccc2C1 [Compound A47, 6-methoxy-2-{[(2R,3S)-2-propyl-1-{[3-(trifluoromethyl)pyridin-2-yl]carbonyl}-3-{[5-(trifluoromethyl)thiophen-3-yl]oxy}piperidin-3-yl]carbonyl}-1,2,3,4-tetrahydroisoquinoline]	101 to 20000
